Measured values as given in patent publication US20190247302A1, “MATERIALS AND METHODS FOR TREATING OPHTHALMIC INFLAMMATION” (University of Miami, priority 2016, published 2019).
“Also recorded” adds a separate entry of the source.

Columns and labels:
[1] = Concentration of bromodomain inhibitor achievable in the new ophthalmic formulation; assay type: physicochemical; conditions: 0.5% DMSO, 0.5% Tween-80, 0.9% NaCl, 1.8% Captisol, versus previous formulations
Text: Next, to address whether local administration of bromodomain inhibitors could be used to regulate ocular inflammatory responses, an ophthalmic formulation BRDi compounds was developed. De novo development was required because the solution required to dissolve these non-polar compounds was not amenable to application to the ocular surface, as they require dilution in high concentrations of DMSO and Tween 80.
To address this issue, a new ophthalmic formulation was developed. The bromodomain inhibitors were successfully diluted at higher concentrations when formulated with DMSO, polysorbate (Tween-80), preservative free 0.9% NaCl, and captisol (Captisol®), which is a polyanionic beta-cyclodextrin derivative providing. […] Using this new formulation, the concentrations of both DMSO and Tween-80 were able to be reduced, from 5% to 0.5% of each (which is tolerable to the eye). The final solution containing the bromodomain inhibitors was 0.5% DMSO, 0.5% Tween-80 and 1.8% Captisol.

[2] = tested on: TNFα production in RAW cells; experiment: TNFα protein in LPS-treated RAW cells, intracellular antibody staining and flow cytometry; assay type: cell-based; conditions: 1 μg/ml LPS, BRDi 67.5-500 nM
Method: Y axis=TNFα percentage of P1 gate; X axis=no LPS/no BRDi, 1 μg/ml LPS/no BRDi, BRDI 500 nM LPS, BRDI 250 nM LPS, BRDI 125 nM LPS, BRDI 67.5 Nm LPS. Triangles=JQ1; squares=IBET151; circles=EP313.
Studies then examined protein production and confirmed that TNFα was reduced by treating RAW cells in vitro with multiple bromodomain inhibitor compounds (FIG. 2).

[3] = tested on: conjunctival epithelial cells (HCEC); experiment: Cytokine mRNA in LPS-exposed human conjunctival epithelial cells (HCEC); assay type: cell-based; conditions: 3 hours LPS, 500 nM
Method: (§1) FIGS. 8A-8C are a bar graph illustrating the effect of BRDi on a human ocular surface primary parenchymal cell line. FIG. 8A illustrates cytokine/GAPDH mRNA levels (ratio to no treatment) (Y-axis) of IL-8, IL-1β, IL-6, TNFα, and CCL2 in HCEC administered no treatment (solid bars), three hours after exposure to LPS (gray bar), and three hours after exposure to LPS and JQ1 (500 nM, hashed bar). FIG. 8B illustrates cytokine/GAPDH mRNA levels (ratio to no treatment) (Y-axis) of IL-8, IL-1β, and IL-6 in keratocytes administered no treatment (solid bars), four hours after exposure to LPS (gray bar), four hours after exposure to LPS and JQ1 (500 nM, hashed bar), and four hours after exposure to LPS and EP313 (500 nM, checked bar). FIG. 8C illustrates cytokine/GAPDH mRNA levels (ratio to no treatment) (Y-axis) of CCL2 in keratocytes administered no treatment (solid bars), four hours after exposure to LPS (gray bar), four hours after exposure to LPS and JQ1 (500 nM, hashed bar), and four hours after exposure to LPS and EP313 (500 nM, checked bar).
The ability of BRDi compounds to regulate production of dry eye-associated cytokines and chemokines produced by human ocular parenchymal cell populations also was examined. In vitro cells from the cornea and conjunctiva compartments of donated human eyes (Florida Lions Bank) were expanded. Primary cell lines were developed comprising either corneal keratocytes or conjunctival epithelial cells (HCEC) (FIG. 8A-8C). Following 3 hr. exposure to LPS, HCEC produced significant levels of IL-8, […], TNFα, CCL2, and detectable levels of IL-6 RNA (FIG. 8A). […] Corneal keratocyte cultures were also examined for RNA production and were also regulated by BRDi compounds JQ1 and EP313 (FIGS. 8B and 8C). […] These observations extend the potential of BRDi to inhibit ocular inflammation. Additionally, differences may exist between the families of BRDi compounds such that particular BRDi may be more useful under a specific set of disease conditions.

corneal keratocytes = experiment: Cytokine mRNA in LPS-exposed human corneal keratocytes; assay type: cell-based; conditions: 4 hours LPS, 500 nM
Method: as §1
The ability of BRDi compounds to regulate production of dry eye-associated cytokines and chemokines produced by human ocular parenchymal cell populations also was examined. In vitro cells from the cornea and conjunctiva compartments of donated human eyes (Florida Lions Bank) were expanded. […]

LPS-induced keratitis = experiment: LPS-induced keratitis, local BRDi administration; clinical haze score; assay type: in vivo
Text: FIG. 5 is a bar graph illustrating the effect of prior formulations on corneal clarity and corneal edema following LPS-induced keratitis. Y axis=clinical haze score; X axis=time after application of LPS+formulations (IBET151, topical (solid bar); IBET151, subconjunctival (hashed bar); solvent, subconjunctival (dotted bar)). […] FIG. 6 is a bar graph illustrating the effect of a formulation of the instant disclosure (administered via subconjunctival injection) on corneal clarity and corneal edema following LPS-induced keratitis. Y axis=clinical haze score; X axis=time after application of LPS+IBET151 formulation (solid bar); solvent alone (hashed bar); saline (dotted bar)). […] FIG. 7 is a bar graph illustrating the effect of a formulation of the instant disclosure (topical administration) on corneal clarity and corneal edema following LPS-induced keratitis. Y axis=clinical haze score; X axis=time after application of LPS+JQ1 formulation (topical, hashed bar); solvent alone (subconjunctival, dotted bar)). […] Next, to address whether local administration of bromodomain inhibitors could be used to regulate ocular inflammatory responses, an ophthalmic formulation BRDi compounds was developed. De novo development was required because the solution required to dissolve these non-polar compounds was not amenable to application to the ocular surface, as they require dilution in high concentrations of DMSO and Tween 80. […] The new formulation comprising bromodomain inhibitor IBET-151 was delivered locally in the eye by subconjunctival injection (20 μg/kg/body weight) just prior and during the induction of in vivo LPS-induced keratitis. […] To confirm that a second bromodomain inhibitor could successfully be used in the ocular compartment to reduce inflammation, JQ1 dissolved in the new ophthalmologic formulation was locally administered (1 μg/μl). The formulation was applied topically, i.e. on the corneal surface 1 drop/3× per day.

SMILES	concentration of bromodomain inhibitor that can be formulated [1]	TNFα protein (TNFα percentage of P1 gate) [2]	CCL2 RNA level [3]	IL-1β RNA level [3]	IL-6 RNA level [3]	IL-8 RNA level [3]	TNFα RNA level [3]	cytokine RNA production (corneal keratocytes)	clinical haze score (corneal clarity and corneal edema) (LPS-induced keratitis; new formulation RLVP.001, topical, 1 μg/μl, 1 drop/3× per day)	clinical haze score (corneal clarity and corneal edema) (LPS-induced keratitis; new formulation RLVP.001, subconjunctival injection, 20 μg/kg/body weight)	clinical haze score (corneal clarity and corneal edema) (LPS-induced keratitis; new formulation RLVP.001, subconjunctival injection, 20 μg/kg/body weight, listed as IBET-151)
Cc1sc2c(c1C)C(c1ccc(Cl)cc1)=N[C@@H](CC(=O)OC(C)(C)C)c1nnc(C)n1-2 [JQ1]	significantly higher concentrations	TNFα protein inhibition	marked decreases	marginally reduced	marked decreases	marked decreases	marked decreases	regulated	prevents corneal opacification; also recorded: successfully ameliorated the inflammatory response in the cornea	–	–
COc1cc2c(cc1-c1c(C)noc1C)ncc1[nH]c(=O)n([C@H](C)c3ccccn3)c12 [IBET151]	significantly higher concentrations	TNFα protein inhibition	–	–	–	–	–	–	–	prevents corneal opacification	ameliorates the development of corneal inflammation
